Test results published in patent US8563609B2, “Nitro fatty acids - neuroprotection and/or inhibition of cognitive decline” (Nitromega Corp., priority 2010, dated 2013).

Tests used:
[1] = 900 mgs per day oral, six months; cited from earlier work
[2] = system: Abeta-mediated changes in membrane trafficking; assay: exocytosis (formazan membrane trafficking) assay with Abeta oligomers in mature primary neuronal cultures; format: cell-based, rat; settings: for amyloid beta (Abeta) in intracellular vesicles (figure legend): exocytosis assay, mature primary neuronal cultures grown for 3 weeks in vitro
From the text: Abeta oligomer preparations: Human amyloid peptide 1-42 was obtained from a variety of commercial sources, with lot-choice contingent upon quality control analysis. Abeta 1-42 oligomers made according to published methods or isolated from human brain tissue served as positive controls. Toxicity was monitored in each image-based assay via quantification of nuclear morphology visualized with the DNA binding dye DAPI. Nuclei that were fragmented were considered to be in late stage apoptosis. Peptide lots producing unusual peptide size ranges or significant toxicity at standard concentrations on neurons were rejected.
Image Processing: Images are captured and analyzed with the Cellomics VTI automated microscope platform. For statistical analysis, a Tukey-Kramer pair-wise comparison with unequal variance is used.
A primary neuron-based functional screening assay to detect small molecule Abeta oligomer blockers: Primary rat neurons grown for at least 3 weeks in vitro were chosen as the basis for this screening assay. […] More complex systems such as acute or organotypic brain slices are very useful but not amenable to high throughput screening. […] For this reason, primary neuronal cultures were chosen because of their ability to be used in high throughput screens and fidelity to what occurs in vivo.
Measuring membrane trafficking rate changes induced by oligomers via formazan morphological shifts has been used in cell lines to discover Abeta oligomer-blocking drugs.
Yellow tetrazolium salts are endocytosed by cells and reduced to insoluble purple formazan in the endosomal pathway. The level of purple formazan is a reflection of the number of actively metabolizing cells in culture, and reduction in the amount of formazan was taken as a measure of cell death or metabolic toxicity in culture as well as an indicator of membrane trafficking
The exocytosis assay was adapted for use with mature primary neuronal cultures grown for 3 weeks in vitro.

[3] = system: motor neurons; assay: motor neuron astrocyte coculture, in vitro model of ALS (SOD G93A astrocytes); format: cell-based, mice
Protocol: Recent studies have shown that nitro-arachidonic acid can have protective effects compared with native arachidonic acid in an in vitro model of ALS. This model is based on astrocyte-induced motoneuron toxicity induced by a mutation in CuZn SOD (SOD1).
Briefly, motor neuron astrocytes cocultures were made.
FIG. 2 illustrates the results of these experiments. Native arachidonic acid (AA) at 3 μM and 5 μM had no effect on the motor neuron survival compared with control.

[4] = primary neuronal cultures grown for 3 weeks in vitro, Abeta oligomers

CC/C=C\C/C=C\C/C=C\C/C=C\C/C=C\C/C=C\CCC(=O)O [DHA, docosahexaenoic acid]
tolerability [1]: well-tolerated

C[C@]12N[C@H](Cc3ccccc31)c1ccccc12 [MK-801]
block of Abeta oligomer effects on membrane trafficking (active / not active) [2, 4]: none were active

CCCCC/C=C\C/C=C\C/C=C\C/C=C\CCCC(=O)O [arachidonic acid]
motor neuron survival compared with control / mutant astrocyte induced motor neuron death ([3]; 3 μM): no effect | motor neuron survival compared with control / mutant astrocyte induced motor neuron death ([3]; 5 μM): no effect

C[N+](C)(C)CCCCCC[N+](C)(C)C [hexamethonium bromide]
block of Abeta oligomer effects on membrane trafficking (active / not active) [2, 4]: none were active

CCCCCCCC/C=C\CCCCCCCC(=O)O [oleic acid]
EC50 ([2]; Rattus norvegicus, 504 h, primary neuronal cultures grown for 3 weeks in vitro, Abeta oligomers, read-out: EC50, inhibition of oligomer effects on membrane trafficking): 2.08 µM | amyloid beta (Abeta) in intracellular vesicles (figure legend) [2]: dose-dependent decrease

O[C@H]1[C@H](O)[C@@H](O)[C@H](O)[C@@H](O)[C@@H]1O [scyllo-inositol]
block of Abeta oligomer effects on membrane trafficking (active / not active) [2, 4]: none were active

Nitro-oleic acid
amyloid beta (Abeta) in intracellular vesicles (figure legend) [2]: dose-dependent decrease | block of Abeta oligomer effects on membrane trafficking (active / not active) [2, 4]: little statistically relevant effect on membrane trafficking

nitro-arachidonic acid
motor neuron survival compared with control / mutant astrocyte induced motor neuron death ([3]; 3 μM): inhibited mutant astrocyte induced motor neuron death | motor neuron survival compared with control / mutant astrocyte induced motor neuron death ([3]; 5 μM): inhibited mutant astrocyte induced motor neuron death | motorneuron death caused by co-culture with astrocytes containing a mutation in SOD1 (SOD G93A) ([3]; incubated for 24 hours with wild type motor neurons): limited motorneuron death
